Patent publication US20260167623A1 (NIKANG THERAPEUTICS, INC., priority 2022, published 2026)

Molecular target: T1, CDK2 (Homo sapiens, UniProt P24941)
T1 construct: High-Throughput Measurement of Cellular Endogenous CDK2; endogenous in cells; host or cells: OVCAR3
Assay: Inhibition of CDK2: phospho-Rb (S807/811) HTRF measurement in OVCAR3 cells, 24 h
Type: cell-based
Conditions: 24 h compound treatment, read-out: pRB_OVCAR3_24h
In short: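 IC50 came from a four-parameter fit of DMSO-normalized TR-FRET ratios (665/620 nm) reporting phospho-Rb S807/811. Lysates were taken from OVCAR3 cultures treated 24 h with compound (0.3 to 10,000 nM) and incubated 4 h at room temperature with the antibody pair.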

Row | SMILES | IC50
1 | Cn1nc(N2CCC(=O)NC2=O)c2ccc(N3CCN(CC4CCN(c5cccc(S(=O)(=O)N6CCC(Nc7ncc(Cl)cn7)CC6)c5)CC4)CC3)cc21 [Example 52, 1-(6-(4-((1-(3-((4-((5-chloropyrimidin-2-yl)amino)piperidin-1-yl)sulfonyl)phenyl)-piperidin-4-yl)methyl)piperazin-1-yl)-1-methyl-1H-indazol-3-yl)dihydropyrimidine-2,4(1H,3H)-dione] | 500 to 2500 nM
2 | Cn1nc(N2CCC(=O)NC2=O)c2ccc(C3CCN(CC4CCN(c5cccc(S(=O)(=O)N6CC7CCC(C6)C7Nc6ncc(Cl)cn6)c5)CC4)CC3)cc21 (racemic) [Example 229, Rac-1-(6-(1-((1-(3-(((1R,5S,8s)-8-((5-chloropyrimidin-2-yl)amino)-3-azabicyclo[3.2.1]octan-3-yl)sulfonyl)phenyl)piperidin-4-yl)methyl)piperidin-4-yl)-1-methyl-1H-indazol-3-yl)dihydropyrimidine-2,4(1H,3H)-dione] | > 2500 nM
3 | Cn1nc(N2CCC(=O)NC2=O)c2ccc(C3CCN(Cc4ccc(C5CCCN(S(=O)(=O)N6CCC(Nc7ncc(Cl)cn7)CC6)C5)cc4)CC3)cc21 (stereo not shown) [Example 157, 1-(6-(1-(4-(1-((4-((5-chloropyrimidin-2-yl)amino)piperidin-1-yl)sulfonyl)piperidin-3-yl)benzyl)piperidin-4-yl)-1-methyl-1H-indazol-3-yl)dihydropyrimidine-2,4(1H,3H)-dione] | 500 to 2500 nM
4 | Cn1nc(N2CCC(=O)NC2=O)c2ccc(N3CCC(CN4CC5CCC(C4)N5c4cccc(S(=O)(=O)N5CCC(Nc6ncc(Cl)cn6)CC5)c4)CC3)cc21 [Example 191, 1-(6-(4-((8-(3-((4-((5-chloropyrimidin-2-yl)amino)piperidin-1-yl)sulfonyl)phenyl)-3,8-diazabicyclo[3.2.1]octan-3-yl)methyl)piperidin-1-yl)-1-methyl-1H-indazol-3-yl)dihydropyrimidine-2,4(1H,3H)-dione] | > 2500 nM
5 | Cn1nc(N2CCC(=O)NC2=O)c2ccc(C3CCN(Cc4cccc(S(=O)(=O)N5CCC(Nc6ncc(F)cn6)CC5)c4)CC3)cc21 [Example 26, 1-(6-(1-(3-((4-((5-fluoropyrimidin-2-yl)amino)piperidin-1-yl)sulfonyl)benzyl)-piperidin-4-yl)-1-methyl-1H-indazol-3-yl)dihydropyrimidine-2,4(1H,3H)-dione] | > 2500 nM
6 | Cn1nc(N2CCC(=O)NC2=O)c2cc(F)c(N3CCN(CC4CCN(c5cccc(S(=O)(=O)N6CCC(Nc7ncc(Cl)cn7)CC6)c5)CC4)CC3)cc21 [Example 111, 1-(6-(4-((1-(3-((4-((5-chloropyrimidin-2-yl)amino)piperidin-1-yl)sulfonyl)phenyl)-piperidin-4-yl)methyl)piperazin-1-yl)-5-fluoro-1-methyl-1H-indazol-3-yl)dihydropyrimidine-2,4(1H,3H)-dione] | 500 to 2500 nM
7 | Cn1nc(N2CCC(=O)NC2=O)c2ccc(C3CCN(CCC4CCCN(S(=O)(=O)N5CCC(Nc6ncc(C(F)(F)F)cn6)CC5)C4)CC3)cc21 (stereo not shown) [Example 32, 1-(1-methyl-6-(1-(2-(1-((4-((5-(trifluoromethyl)pyrimidin-2-yl)amino)-piperidin-1-yl)sulfonyl)piperidin-3-yl)ethyl)piperidin-4-yl)-1H-indazol-3-yl)dihydropyrimidine-2,4(1H,3H)-dione] | 500 to 2500 nM
8 | O=C1CCC(N2Cc3cc(N4CCC(N5CC(Oc6cccc(S(=O)(=O)N7CCC(Nc8ncc(C(F)(F)F)cn8)CC7)c6)C5)CC4)ccc3C2=O)C(=O)N1 (stereo not shown) [Example 45, 3-(1-ox0-5-(4-(3-(3-((4-((5-(trifluoro-methyl)pyrimidin-2-yl)amino)piperidin-1-yl)sulfonyl)phenoxy)azetidin-1-yl)piperidin-1-yl)isoindolin-2-yl)piperidine-2,6-dione] | 100 to 500 nM
9 | Cn1nc(N2CCC(=O)NC2=O)c2ccc(C3CCN(Cc4cccc(C#Cc5cccc(S(=O)(=O)N6CCC(Nc7ncc(C(F)(F)F)cn7)CC6)c5)c4)CC3)cc21 [Example 233] | 100 to 500 nM
10 | O=C1CCC(N2Cc3cc(N4CCN(CC5CCN(c6cccc(S(=O)(=O)N7CCC(Nc8ncc(Cl)cn8)CC7)c6)CC5)CC4)c(F)cc3C2=O)C(=O)N1 (stereo not shown) [Example 103, 3-(5-(4-((1-(3-((4-((5-chloropyrimidin-2-yl)amino)piperidin-1-yl)sulfonyl)phenyl)-piperidin-4-yl)methyl)piperazin-1-yl)-6-fluoro-1-oxoisoindolin-2-yl)piperidine-2,6-dione] | 500 to 2500 nM
11 | Cn1nc(N2CCC(=O)NC2=O)c2ccc(C3CCN(Cc4cccc(S(=O)(=O)[C@H]5CC[C@H](Nc6ncc(Cl)cn6)CC5)c4)CC3)cc21 [Example 59, 1-(6-(1-(3-(((1r,4r)-4-((5-chloropyrimidin-2-yl)amino)cyclohexyl)sulfonyl)benzyl)piperidin-4-yl)-1-methyl-1H-indazol-3-yl)dihydropyrimidine-2,4(1H,3H)-dione] | > 2500 nM
12 | Cn1nc(N2CCC(=O)NC2=O)c2ccc(C3CCN(CC4CCN(c5cccc(S(=O)(=O)[C@H]6CC[C@H](Nc7ncc(C(F)(F)F)cn7)CC6)c5)CC4)CC3)cc21 [Example 240] | > 2500 nM
13 | O=C1CCC(N2Cc3cc(C4CCN(CC5CCN(c6cccc(S(=O)(=O)N7CCC(Nc8ncc(Cl)cn8)CC7)c6)CC5)CC4)c(F)cc3C2=O)C(=O)N1 (stereo not shown) [Example 120, 3-(5-(1-((1-(3-((4-((5-chloropyrimidin-2-yl)amino)piperidin-1-yl)sulfonyl)phenyl)-piperidin-4-yl)methyl)piperidin-4-yl)-6-fluoro-1-oxoisoindolin-2-yl)piperidine-2,6-dione] | 100 to 500 nM
14 | Cn1nc(N2CCC(=O)NC2=O)c2ccc(C3CCN(CC4CCCN(c5cccc(S(=O)(=O)N6CCC(Nc7ncc(Cl)cn7)CC6)c5)CC4)CC3)cc21 (stereo not shown) [Example 136, 1-(6-(1-((1-(3-((4-((5-chloropyrimidin-2-yl)amino)piperidin-1-yl)sulfonyl)phenyl)-azepan-4-yl)methyl)piperidin-4-yl)-1-methyl-1H-indazol-3-yl)dihydropyrimidine-2,4(1H,3H)-dione] | 100 to 500 nM

Second part, the compound after the results:

Row | IC50 | SMILES
15 | 100 to 500 nM | Cn1nc(N2CCC(=O)NC2=O)c2ccc(C3CCN(C[C@H]4CCCCN4c4cccc(S(=O)(=O)N5CCC(Nc6ncc(OC(F)F)cn6)CC5)c4)CC3)cc21 [Example 260, (R)-1-(6-(1-((1-(3-((4-((5-(difluoromethoxy)pyrimidin-2-yl)amino)piperidin-1-yl)sulfonyl)phenyl)piperidin-2-yl)methyl)piperidin-4-yl)-1-methyl-1H-indazol-3-yl)dihydropyrimidine-2,4(1H,3H)-dione]
16 | 100 to 500 nM | C[C@H]1CN(CC2CCN(c3cccc(S(=O)(=O)N4CCC(Nc5ncc(Cl)cn5)CC4)c3)CC2)CCN1c1ccc2c(N3CCC(=O)NC3=O)nn(C)c2c1 [Example 117, (S)-1-(6-(4-((1-(3-((4-((5-chloropyrimidin-2-yl)amino)piperidin-1-yl)sulfonyl)phenyl)-piperidin-4-yl)methyl)-2-methylpiperazin-1-yl)-1-methyl-1H-indazol-3-yl)dihydro-pyrimidine-2,4(1H,3H)-dione]
17 | 100 to 500 nM | O=C1CCN(c2ccc(N3CCN(CC4CCN(c5cccc(S(=O)(=O)N6CCC(Nc7ncc(C(F)(F)F)cn7)CC6)c5)CC4)CC3)cc2)C(=O)N1 [Example 113, 1-(4-(4-((1-(3-((4-((5-(trifluoromethyl)-pyrimidin-2-yl)amino)piperidin-1-yl)sulfonyl)phenyl)piperidin-4-yl)methyl)piperazin-1-yl)phenyl)-dihydropyrimidine-2,4(1H,3H)-dione]
18 | 1 to 100 nM | Cn1nc(N2CCC(=O)NC2=O)c2ccc(C3CCN(CC4CCN(c5cccc(S(=O)(=O)N6CCC(Nc7ncc(OC(F)F)cn7)CC6)c5)CC4)CC3)cc21 [Example 112, 1-(6-(1-((1-(3-((4-((5-(difluoromethoxy)-pyrimidin-2-yl)amino)piperidin-1-yl)sulfonyl)phenyl)piperidin-4-yl)methyl)piperidin-4-yl)-1-methyl-1H-indazol-3-yl)dihydropyrimidine-2,4(1H,3H)-dione]
19 | 100 to 500 nM | O=C1CCN(c2nn(CC(F)(F)F)c3cc(N4CCN(Cc5cccc(S(=O)(=O)N6CCC(Nc7ncc(Cl)cn7)CC6)c5)CC4)ccc23)C(=O)N1 [Example 62, 1-(6-(4-(3-((4-((5-chloropyrimidin-2-yl)amino)piperidin-1-yl)sulfonyl)benzyl)-piperazin-1-yl)-1-(2,2,2-trifluoroethyl)-1H-indazol-3-yl)dihydropyrimidine-2,4(1H,3H)-dione]
20 | 100 to 500 nM | O=C1CCC(N2Cc3cc(N4CCN(CC5CCN(c6cccc(S(=O)(=O)N7CCC(Nc8ncc(OC(F)F)cn8)CC7)c6)CC5)CC4)c(F)cc3C2=O)C(=O)N1 (stereo not shown) [Example 106, 3-(5-(4-((1-(3-((4-((5-(difluoromethoxy)-pyrimidin-2-yl)amino)piperidin-1-yl)sulfonyl)phenyl)piperidin-4-yl)methyl)-piperazin-1-yl)-6-fluoro-1-oxoisoindolin-2-yl)piperidine-2,6-dione]
21 | 100 to 500 nM | O=C1CCN(c2nn(CC(F)(F)F)c3cc(C4CCN(Cc5cccc(S(=O)(=O)N6CCC(Nc7ncc(C(F)(F)F)cn7)CC6)c5)CC4)ccc23)C(=O)N1 [Example 5, 1-(1-(2,2,2-trifluoroethyl)-6-(1-(3-((4-((5-(trifluoromethyl)pyrimidin-2-yl)amino)-piperidin-1-yl)sulfonyl)benzyl)-piperidin-4-yl)-1H-indazol-3-yl)dihydropyrimidine-2,4(1H,3H)-dione]
22 | 100 to 500 nM | CC(Cc1cccc(S(=O)(=O)N2CCC(Nc3ncc(C(F)(F)F)cn3)CC2)c1)CN1CCN(c2cc3c(cc2F)C(=O)N(C2CCC(=O)NC2=O)C3)CC1 (stereo not shown) [Example 96, 3-(6-fluoro-5-(4-(2-methyl-3-(3-((4-((5-(trifluoromethyl)pyrimidin-2-yl)amino)-piperidin-1-yl)sulfonyl)phenyl)propyl)-piperazin-1-yl)-1-oxoisoindolin-2-yl)piperidine-2,6-dione]
